20 compounds from ChEMBL document CHEMBL5608257, “Structure-Based Optimization of a Series of Covalent, Cell Active Bfl-1 Inhibitors” (J Med Chem, 2024) can be followed below.

Experiment [1] deals with T1, Bcl-2-related protein A1 (Homo sapiens, UniProt Q16548).
T1 sequence (Q16548 whole entry): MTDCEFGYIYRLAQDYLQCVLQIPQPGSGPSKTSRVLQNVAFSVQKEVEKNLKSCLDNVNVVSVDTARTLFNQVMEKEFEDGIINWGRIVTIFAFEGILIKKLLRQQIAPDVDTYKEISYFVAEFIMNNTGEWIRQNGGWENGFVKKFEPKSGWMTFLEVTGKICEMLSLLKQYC
As to the kind of experiment: Inhibition of N-terminal His6-tagged recombinant Bfl-1 (1 to 151 residues)(unknown origin) extracted from Escherichia coli BL21-Gold (DE3) using HyLite Fluor 647-labeled Bim peptide as substrate incubated for 120 mins by TR-FRET assay. In general terms: In TR-FRET formats the signal depends on donor and acceptor labels being close together.

Experiment [2] has as its target T1, Bcl-2-related protein A1. As to the kind of experiment: Inhibition of Bfl-1 in human SU-DHL-1 cells assessed as caspase-3/7 activation measured after 6 hrs by UPLC-MRM MS analysis. The experiment is classed as cell-based.
Experiment [3] concerns the target Induced myeloid leukemia cell differentiation protein Mcl-1 (Homo sapiens, UniProt Q07820). As to the kind of experiment: Inhibition of Mcl-1 (unknown origin).

Bounds are passed on as bounds.

The term IC50 denotes the concentration that inhibits the measured activity by half. The term EC50 denotes the midpoint of the concentration-response curve.

Chain of Induced myeloid leukemia cell differentiation protein Mcl-1 (Q07820 whole entry): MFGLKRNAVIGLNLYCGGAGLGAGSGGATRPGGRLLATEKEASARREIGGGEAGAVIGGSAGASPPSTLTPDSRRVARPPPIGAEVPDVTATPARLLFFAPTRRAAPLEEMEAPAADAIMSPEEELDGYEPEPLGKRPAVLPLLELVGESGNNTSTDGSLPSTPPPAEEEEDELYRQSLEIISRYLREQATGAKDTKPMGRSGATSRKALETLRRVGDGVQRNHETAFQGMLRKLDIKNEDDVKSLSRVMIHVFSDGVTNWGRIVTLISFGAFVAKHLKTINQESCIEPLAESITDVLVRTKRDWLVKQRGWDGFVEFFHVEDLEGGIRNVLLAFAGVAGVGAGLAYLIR

On to `C=CC(=O)N(Cc1ccc(C#N)c(Cl)c1)c1ccc(O[C@@H]2CC[C@@H](N)C2)cc1` (racemic), for which the IC50 in experiment [1] came to 550 nM. On the same count and under the same terms, with `C=CC(=O)N(Cc1ccc(Cl)cc1)c1ccc(O[C@@H]2CC[C@@H](NC)C2)cc1` (racemic) the figure was 380 nM. The same measure, in the same setting: under `C=CC(=O)N(Cc1ccc(OC)cc1)c1ccccc1Cl` stands 29000 nM; under `C=CC(=O)N(Cc1ccc(OC)cc1)c1ccc(Cl)cc1`, 19000 nM. In the case of `C=CC(=O)N(Cc1ccc(C(F)(F)F)cc1)c1ccc(O[C@@H]2CC[C@@H](N)C2)cc1` (racemic), the IC50 in experiment [1] was 720 nM. In addition, the EC50 in experiment [2] was 2600 nM. Consider `C=CC(=O)N(Cc1ccc(Cl)cc1)c1ccc(O[C@@H]2CC[C@@H](N)C2)cc1`, for which, in experiment [1], the IC50 worked out at 340 nM. On to `C=CC(=O)N(Cc1ccc(Cl)cc1)c1ccc(O[C@@H]2CC[C@@H](N)C2)cc1` (racemic), for which the IC50 in experiment [1] worked out at 450 nM. Further, the EC50 in experiment [2] amounted to 7400 nM. With `C=CC(=O)N(Cc1ccc(C(F)(F)F)c(C#N)c1)c1ccc(O[C@@H]2CC[C@@H](N)C2)cc1` (racemic), in experiment [1], the IC50 was 300 nM. In addition, the 50% effective concentration (EC50) in experiment [2] is 1800 nM. As to `C=CC(=O)N(Cc1ccc(OC)cc1)c1ccccc1`, the IC50 in experiment [1] is > 100000 nM. The same measure, in the same setting: under `C=CC(=O)N(Cc1ccc(Cl)cc1)c1ccc(OC)cc1` stands 9800 nM; under `C=CC(=O)N(Cc1ccc(Cl)cc1)c1ccc(O[C@@H]2CC[C@@H](N(C)C)C2)cc1` (racemic), 440 nM. Still for that read-out and setting: with `C=CC(=O)N(Cc1ccc(Cl)cc1)c1ccc(O[C@@H]2CC[C@@H](N(C)C(C)=O)C2)cc1` (racemic) the figure was 22000 nM.

In the case of `C=CC(=O)N(Cc1ccc(Cl)c(C#N)c1)c1ccc(O[C@@H]2CC[C@@H](N)C2)cc1` (racemic), the IC50 in experiment [1] came out at 350 nM. For the same compound, the EC50 in experiment [2] was found to be 3700 nM.

As for `C=CC(=O)N(Cc1ccc(Cl)cc1)c1ccc(O[C@@H]2CC[C@@H](NC(C)=O)C2)cc1` (racemic), the IC50 in experiment [1] was determined as 460 nM. Turning to `C=CC(=O)N(Cc1ccc(Cl)cc1)c1ccc(O[C@@H]2CC[C@@H](NC(=O)NC)C2)cc1` (racemic), the IC50 in experiment [1] was 360 nM. The same measure, in the same setting: with `C=CC(=O)N(Cc1ccc(Cl)cc1)c1ccc(F)cc1` the figure was 5100 nM. For `C=CC(=O)N(c1ccc(O[C@@H]2CC[C@@H](N)C2)cc1)[C@H](C)c1ccc(C(F)(F)F)c(C#N)c1`, the IC50 in experiment [1] amounted to 1600 nM. Moreover, the EC50 in experiment [2] came out at 6900 nM. With `C=CC(=O)N(Cc1ccc(Cl)cc1)c1ccc(O[C@H]2CC[C@H](N)C2)cc1`, the IC50 in experiment [1] turned out to be 5100 nM. Consider `C=CC(=O)N(c1ccc(O[C@@H]2CC[C@@H](N)C2)cc1)[C@@H](C)c1ccc(C(F)(F)F)c(C#N)c1`, for which the 50% inhibitory concentration (IC50) in experiment [1] is 22 nM; in experiment [3], > 100000 nM. Besides, in experiment [2], the EC50 amounted to 370 nM.

As to `C=CC(=O)N(Cc1ccc(Cl)cc1)c1ccc(O[C@H]2CC[C@@H](N)C2)cc1` (racemic), the IC50 in experiment [1] turned out to be 42000 nM.
